Data on 28 molecules can be found in patent US20240018161A1, “MODULATORS OF CYSTIC FIBROSIS TRANSMEMBRANE CONDUCTANCE REGULATOR” (VERTEX PHARMACEUTICALS INCORPORATED, priority 2020, published 2024).

This assay concerns the target CFTR-mediated chloride transport in human intestinal epithelial enteroid cells (Homo sapiens, UniProt P13569). Kind of assay: Membrane potential dye, Enteroid Assay A. The settings on record: for EC50: read-out: Ent. A EC50. The format is cell-based. Summed up:
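Membrane potential dye (20 μM methyl oxonol, with 30 μM CaCCinh-A01 and 30 μM Chicago Sky Blue) loaded 25 min at room temperature into ROCK-inhibitor-seeded human enteroid cells. Chloride-free stimulation buffer triggered transport, followed by 15 min fluorescence. % Activity relative to 3 μM/3 μM/300 nM triple-combination control.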

[1] abbreviates: enteroid cells incubated with test compound 18-24 hours, acute 10 μM forskolin and 300 nM N-[2,4-bis(1,1-dimethylethyl)-5-hydroxyphenyl]-1,4-dihydro-4-oxoquinoline-3-carboxamide.
[2] abbreviates: percentage of chloride transport of triple combination control (3 μM N-[(6-amino-2-pyridyl)sulfonyl]-6-(3-fluoro-5-isobutoxy-phenyl)-2-[(4S)-2,2,4-trimethylpyrrolidin-1-yl]pyridine-3-carboxamide based).

Structures are written as SMILES. Like-named read-outs stand apart in the source and are kept apart here.

By EC50 is commonly meant the midpoint of the concentration-response curve.

CFTR-mediated chloride transport in human intestinal epithelial enteroid cells, sequence (P13569 with tags, fused parts or gaps DEL508-508): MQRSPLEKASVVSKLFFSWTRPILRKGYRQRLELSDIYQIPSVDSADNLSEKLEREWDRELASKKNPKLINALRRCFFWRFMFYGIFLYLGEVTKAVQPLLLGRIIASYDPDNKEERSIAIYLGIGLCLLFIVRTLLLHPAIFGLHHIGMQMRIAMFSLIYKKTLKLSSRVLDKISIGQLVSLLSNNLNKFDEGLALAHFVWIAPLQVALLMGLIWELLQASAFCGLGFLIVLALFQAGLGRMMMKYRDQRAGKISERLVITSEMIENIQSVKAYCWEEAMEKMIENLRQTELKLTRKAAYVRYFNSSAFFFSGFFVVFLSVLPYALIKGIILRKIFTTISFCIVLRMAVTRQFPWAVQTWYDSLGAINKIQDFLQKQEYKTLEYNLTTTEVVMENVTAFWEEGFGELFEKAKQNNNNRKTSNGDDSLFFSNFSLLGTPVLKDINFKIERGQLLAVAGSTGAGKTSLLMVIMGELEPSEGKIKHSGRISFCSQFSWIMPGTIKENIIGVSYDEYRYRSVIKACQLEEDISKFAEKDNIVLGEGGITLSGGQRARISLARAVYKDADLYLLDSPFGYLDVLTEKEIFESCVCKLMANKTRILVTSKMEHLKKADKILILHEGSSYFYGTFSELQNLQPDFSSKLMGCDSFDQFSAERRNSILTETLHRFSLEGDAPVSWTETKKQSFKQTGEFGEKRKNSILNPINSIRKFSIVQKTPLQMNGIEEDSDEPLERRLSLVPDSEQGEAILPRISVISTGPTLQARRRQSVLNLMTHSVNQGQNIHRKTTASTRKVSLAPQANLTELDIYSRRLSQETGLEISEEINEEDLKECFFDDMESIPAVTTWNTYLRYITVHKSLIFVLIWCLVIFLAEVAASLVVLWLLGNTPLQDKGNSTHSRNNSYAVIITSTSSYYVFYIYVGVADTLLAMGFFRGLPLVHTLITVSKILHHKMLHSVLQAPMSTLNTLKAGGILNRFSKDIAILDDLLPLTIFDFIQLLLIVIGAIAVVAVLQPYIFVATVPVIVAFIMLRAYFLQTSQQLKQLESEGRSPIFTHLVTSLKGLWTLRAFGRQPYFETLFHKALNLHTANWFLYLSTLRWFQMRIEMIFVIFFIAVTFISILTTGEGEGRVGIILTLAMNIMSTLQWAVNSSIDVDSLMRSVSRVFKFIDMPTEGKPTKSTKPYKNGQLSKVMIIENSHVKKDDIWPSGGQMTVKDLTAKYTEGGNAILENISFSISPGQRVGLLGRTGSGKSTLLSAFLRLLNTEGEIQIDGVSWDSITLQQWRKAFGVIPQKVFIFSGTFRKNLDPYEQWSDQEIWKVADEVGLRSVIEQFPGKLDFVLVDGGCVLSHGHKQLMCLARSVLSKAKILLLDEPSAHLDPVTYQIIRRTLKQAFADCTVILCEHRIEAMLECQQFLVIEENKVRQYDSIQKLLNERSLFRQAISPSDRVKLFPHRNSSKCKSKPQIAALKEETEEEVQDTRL

In the case of `Cc1cccc(C)c1-c1cc2nc(n1)NS(=O)(=O)c1cccc(c1)C(=O)N1CCN(C(C)C)CC1C(Cc1ccccc1)O2` (stereo not drawn) [Compound 174, 9-benzyl-13-(2,6-dimethylphenyl)-6-(propan-2-yl)-10-oxa-17λ^6-thia-3,6,14,16,23-pentaazatetracyclo[16.3.1.111,15.03,8]tricosa-1(22),11,13,15(23),18,20-hexaene-2,17,17-trione], for the setting “Enteroid Assay A”, the “Ent. A Max Activity (%)” value is listed as “+++ (+++ is >600%)” and the EC50 is < 1 µM. As to `Cc1cccc(C)c1-c1cc2nc(n1)NS(=O)(=O)c1cccc(c1)C(=O)N1C[C@@H](CN(CC(F)(F)F)CC1CC(C)C)O2` (stereo in doubt) [Compound 105, (16R,20R)-12-(2,6-Dimethylphenyl)-20-(2-methylpropyl)-18-(2,2,2-trifluoroethyl)-15-oxa-8λ^6-thia-1,9,11,18,22-pentaazatetracyclo[14.4.1.13,7.110,14]tricosa-3(23),4,6,10,12,14(22)-hexaene-2,8,8-trione], where the note is “Enteroid Assay A”, the “Ent. A Max Activity (%)” value is “+ (+ is <30%)”. As to `Cc1cccc(C)c1-c1cc2nc(n1)NS(=O)(=O)c1cccc(c1)C(=O)N1Cc3ccccc3C[C@@H]1CO2` [Compound 211, (12R)-17-(2,6-Dimethylphenyl)-14-oxa-21λ^6-thia-3,18,20,27-tetraazapentacyclo[20.3.1.115,19.03,12.05,10]heptacosa-1(26),5(10),6,8,15(27),16,18,22,24-nonaene-2,21,21-trione], the half-maximal effective concentration (EC50) under setting [1] was < 1 µM. The “Ent. A Max Activity (%)” value under setting [2] was “+++ (+++ is >60%)”. In the case of `Cc1cccc(C)c1-c1cc2nc(n1)NS(=O)(=O)c1cccc(c1)C(=O)N1CCN(C(=O)NC34CC5CC(CC(C5)C3)C4)C[C@@H]1CO2` [Compound 290], the EC50 under setting [1] lay in the range of 1 to 3 µM. The “Ent. A Max Activity (%)” value under setting [2] is reported as “++ (++ is 30-60%)”.

With `Cc1cccc(C)c1-c1cc2nc(n1)NS(=O)(=O)c1cccc(c1)C(=O)N1CCN(Cc3cn(C)nc3C)C[C@@H]1CO2` [Compound 276], the “Ent. A Max Activity (%)” value under setting [2] was “++ (++ is 30-60%)”. Regarding `Cc1cccc(C)c1-c1cc2nc(n1)NS(=O)(=O)c1cccc(c1)C(=O)N1CCN(C3CC(F)(F)C3)C[C@H](C1)O2` [Compound 21], where the note is “Enteroid Assay A”, the “Ent. A Max Activity (%)” value is given as “+++ (+++ is >600%)” and the EC50 is < 1 µM. For the molecule `Cc1cccc(C)c1-c1cc2nc(n1)NS(=O)(=O)c1cccc(c1)C(=O)N1C[C@@H](CN(C)C[C@@H]1CC(C)(C)C)O2` [Compound 136, (16R,20S)-12-(2,6-Dimethylphenyl)-20-(2,2-dimethylpropyl)-18-methyl-15-oxa-8λ^6-thia-1,9,11,18,22-pentaazatetracyclo[14.4.1.13,7.110,14]tricosa-3(23),4,6,10(22),11,13-hexaene-2,8,8-trione], for the setting “Enteroid Assay A”, the “Ent. A Max Activity (%)” value was “+++ (+++ is >600%)” and the EC50 is < 1 µM. As for `Cc1cccc(C)c1-c1cc2nc(n1)NS(=O)(=O)c1cccc(c1)C(=O)N1CCN(C3CCC(F)(F)CC3)C[C@@H](O2)[C@H]1CC(C)C` [Compound 158], the “Ent. A Max Activity (%)” value is on record as “+++ (key: +++ is >600%; ++ is 30-60%; + is <30%)”. With `Cc1cccc(C)c1-c1cc2nc(n1)NS(=O)(=O)c1cccc(c1)C(=O)N1CCN(Cc3ccccc3C#N)C[C@@H]1CO2` [Compound 266], the EC50 under setting [1] lay within 3 to 30 µM. The “Ent. A Max Activity (%)” value under setting [2] is reported as “+++ (+++ is >60%)”. Take `Cc1cccc(C)c1-c1cc2nc(n1)NS(=O)(=O)c1cccc(c1)C(=O)N1C[C@@H](CN(C3CC4(CCCCC4)C3)C[C@@H]1C(C)C)O2` [Compound 148]: under “Enteroid Assay A”, the “Ent. A Max Activity (%)” value is “+++ (+++ is >600%)” and the EC50 is < 1 µM. Regarding `Cc1cccc(C)c1-c1cc2nc(n1)NS(=O)(=O)c1cccc(c1)C(=O)N1CCN(CCC(C)(C)C)CC(C1)O2` (stereo not drawn) [Compound 45], under setting [1], the EC50 was < 1 µM. The “Ent. A Max Activity (%)” value under setting [2] is “+++ (+++ is >60%)”. In the case of `Cc1cccc(C)c1-c1cc2nc(n1)NS(=O)(=O)c1cccc(c1)C(=O)N1CC3CCCN(C)C3[C@H](C1)O2` (single isomer, unassigned) [Compound 199, 12-(2,6-dimethylphenyl)-18-methyl-15-oxa-8λ^6-thia-1,9,11,18,25-pentaazapentacyclo[14.7.1.13,7.110,14.017,22]hexacosa-3,5,7(26),10(25),11,13-hexaene-2,8,8-trione], the concentration giving a half-maximal response (EC50) under setting [1] was < 1 µM. For the same molecule, under setting [2], the “Ent. A Max Activity (%)” value is recorded as “+++ (+++ is >60%)”. As for `Cc1cccc(C)c1-c1cc2nc(n1)NS(=O)(=O)c1cccc(c1)C(=O)N1C[C@@H](CN(C3CCC(F)(F)CC3)C[C@@H]1C(C)C)O2` [Compound 146], where the note is “Enteroid Assay A”, the “Ent. A Max Activity (%)” value is given as “+++ (+++ is >600%)” and the EC50 is < 1 µM.

In the case of `Cc1cccc(C)c1-c1cc2nc(n1)NS(=O)(=O)c1cccc(c1)C(=O)N1CCN(Cc3ccccc3O)CC(C1)O2` (stereo not drawn) [Compound 57], the EC50 under setting [1] is < 1 µM. In addition, the “Ent. A Max Activity (%)” value under setting [2] was “+++ (+++ is >60%)”. Consider `Cc1cccc(C)c1-c1cc2nc(n1)NS(=O)(=O)c1cccc(c1)C(=O)N1CCN([C@H]3CC[C@@H](F)CC3)C[C@H](C1)O2` (single isomer, unassigned) [Compound 38], for which, under “Enteroid Assay A”, the “Ent. A Max Activity (%)” value is recorded as “+++ (+++ is >600%)” and the concentration giving a half-maximal response (EC50) was < 1 µM.

Regarding `Cc1cccc(C)c1-c1cc2nc(n1)NS(=O)(=O)c1cccc(c1)C(=O)N1CCN(Cc3ccccc3)CC(O2)C1CC(C)C` (single isomer, unassigned) [Compound 89, 18-benzyl-12-(2,6-dimethylphenyl)-21-(2-methylpropyl)-15-oxa-8λ^6-thia-1,9,11,18,22-pentaazatetracyclo[14.4.1.13,7.110,14]tricosa-3(23),4,6,10(22),11,13-hexaene-2,8,8-trione], for the setting “Enteroid Assay A”, the “Ent. A Max Activity (%)” value was “+++ (+++ is >600%)” and the EC50 is < 1 µM. Take `Cc1cccc(C)c1-c1cc2nc(n1)NS(=O)(=O)c1cnn(c1)CC(=O)N1CCCC(C1)O2` (stereo not drawn) [Compound 354]: the “Ent. A Max Activity (%)” value under setting [2] is recorded as “+ (+ is <300%)”. On to `Cc1cccc(C)c1-c1cc2nc(n1)NS(=O)(=O)c1cccc(c1)C(=O)N1Cc3ccccc3[C@@H](C1)O2` [Compound 318], for which the “Ent. A Max Activity (%)” value under setting [2] is on record as “+ (+ is <300%)”. Take `Cc1cccc(C)c1-c1cc2nc(n1)NS(=O)(=O)c1cccc(c1)C(=O)N1CCN(C(=O)CC(C)(C)C)C(CO2)C1` (stereo not drawn) [Compound 304]: the “Ent. A Max Activity (%)” value under setting [2] is “++ (++ is 30-60%)”. As for `Cc1cccc(C)c1-c1cc2nc(n1)NS(=O)(=O)c1cccc(c1)C(=O)N1CC(O2)C2CCCN(C)C2C1` (single isomer, unassigned) [Compound 202, 12-(2,6-Dimethylphenyl)-21-methyl-15-oxa-8λ^6-thia-1,9,11,21,25-pentaazapentacyclo[14.7.1.13,7.110,14.017,22]hexacosa-3,5,7(26),10(25),11,13-hexaene-2,8,8-trione], the “Ent. A Max Activity (%)” value (Enteroid Assay A) is “+ (+ is <30%)”.

Turning to `CCOC(=O)C1CC1CN1CCN2C[C@@H](C1)Oc1cc(-c3c(C)cccc3C)nc(n1)NS(=O)(=O)c1cccc(c1)C2=O` (stereo partly drawn) [Compound 34], under “Enteroid Assay A”, the “Ent. A Max Activity (%)” value was “+++ (+++ is >600%)” and the EC50 is < 1 µM. Consider `Cc1cccc(C)c1-c1cc2nc(n1)NS(=O)(=O)c1cccc(c1)C(=O)N1CCN(C(=O)N(C(C)C)C(C)C)C[C@@H]1CO2` [Compound 167, (8R)-13-(2,6-Dimethylphenyl)-2,17,17-trioxo-N,N-bis(propan-2-yl)-10-oxa-17λ^6-thia-3,6,14,16,23-pentaazatetracyclo[16.3.1.111,15.03,8]tricosa-1(21),11,13,15(23),18(22),19-hexaene-6-carboxamide], for which, under setting [1], the 50% effective concentration (EC50) was 1 to 3 µM. The “Ent. A Max Activity (%)” value under setting [2] was “+++ (+++ is >60%)”. As for `Cc1cccc(C)c1-c1cc2nc(n1)NS(=O)(=O)c1cccc(c1)C(=O)N1CCN(CC3CC4C=CC3C4)CC(C1)O2` (stereo not drawn) [Compound 59], the EC50 under setting [1] was < 1 µM. For the same molecule, the “Ent. A Max Activity (%)” value under setting [2] is listed as “+++ (+++ is >60%)”. For `Cc1cccc(C)c1-c1cc2nc(n1)NS(=O)(=O)c1cccc(c1)C(=O)N1C[C@@H](CN(C3CC4(CCCCC4)C3)C[C@@H]1CC(C)C)O2` [Compound 150], for the setting “Enteroid Assay A”, the “Ent. A Max Activity (%)” value was “++ (++ is 30-60%)” and the EC50 was < 1 µM. On to `Cc1cccc(C)c1-c1cc2nc(n1)NS(=O)(=O)c1cccc(c1)C(=O)N1CCN(CCC3(C(F)(F)F)CC3)CC(C1)O2` (single isomer, unassigned) [Compound 69, 12-(2,6-Dimethylphenyl)-18-{2-[1-(trifluoromethyl)cyclopropyl]ethyl}-15-oxa-8λ^6-thia-1,9,11,18,22-pentaazatetracyclo[14.4.1.13,7.110,14]tricosa-3(23),4,6,10(22),11,13-hexaene-2,8,8-trione], for which, where the note is “Enteroid Assay A”, the “Ent. A Max Activity (%)” value is reported as “+++ (+++ is >600%)” and the EC50 was < 1 µM. As for `Cc1cccc(C)c1-c1cc2nc(n1)NS(=O)(=O)c1cccc(c1)C(=O)N1CCN(C(=O)CCN3CCCC3=O)CC1CO2` (stereo not drawn) [Compound 306], the “Ent. A Max Activity (%)” value under setting [2] is on record as “+ (+ is <300%)”. Regarding `Cc1ccc(CN2CCN3C(=O)c4cccc(c4)S(=O)(=O)Nc4nc(cc(-c5c(C)cccc5C)n4)OC[C@H]3C2)cn1` [Compound 274], under setting [1], the EC50 was 3 to 30 µM. Also, the “Ent. A Max Activity (%)” value under setting [2] is “+++ (+++ is >60%)”. As to `Cc1cccc(C)c1-c1cc2nc(n1)NS(=O)(=O)c1cccc(c1)C(=O)N1CCN(C)C[C@@H]1CO2` [Compound 162, (8R)-13-(2,6-Dimethylphenyl)-6-methyl-10-oxa-17λ^6-thia-3,6,14,16,23-pentaazatetracyclo[16.3.1.111,15.03,8]tricosa-1(21),11,13,15(23),18(22),19-hexaene-2,17,17-trione], under setting [1], the EC50 fell in the range of 3 to 30 µM. For the same molecule, the “Ent. A Max Activity (%)” value under setting [2] is recorded as “++ (++ is 30-60%)”.
